Laboratory results from patent publication US8257478B2, “Use of marine fungus originated compounds as antifouling agents” (The Hong Kong University of Science and Technology, priority 2004, dated 2012).
Converted amounts (≈) assume the structure as drawn. Read-outs that look alike come from different tables or passages of the source.

Columns and labels:
[1] = system: barnacle Balanus amphitrite larvae; experiment: anti-larval settlement bioassay in 24-well plates; type: in vivo
Description: Anti-larval settlement activity of 3-chloro-2,5-dihydroxy benzyl alcohol (compound 1) was conducted using 24-well polystyrene plates. Pure compound was dissolved in DMSO and added to autoclaved FSW at different concentrations. Competent Balanus amphitrites larvae (10±2 individuals) were added to each well with 1 ml testing solution in 5 replicates, and wells containing FSW (filtered seawater) served as control. The 24-well plates were incubated at 30° C. for 24 h. The percent settlement was determined by counting the number of settled larvae under a dissecting microscope. In all bioassays, FSW served as the control. Statistical calculations were performed with the SPSS (Statistical Package for the Social Sciences) software package, Version 11.
(§1) The larval bioassay was conducted according to Rittschof et al. (1994), which is incorporated by reference herein in its entirety.
(§2) The assay was conducted according to Rittschof et al. (1994). Data plotted are means+SD of five replicates.
For determining anti-larval settlement activity, adult Balanus amphitrile (Darwin) were collected from the intertidal zone in Hong Kong (22°19′N, 114°16′E). Nauplii obtained from several adults were mass-reared to cyprid stage at a density of 2 larvae ml^−1 in 0.22-μm-filtered seawater with 30 ppt salinity (FSW) using Chaetoceros gracilis Schutt as food and a rearing temperature of 28° C. Newly transformed cyprids were used for the experiment.
Anti-larval settlement activity of succinic acid against B. amphitrite was determined using 24-well polystyrene plates. Pure compound was dissolved in autoclaved FSW ranged from 60-140 μg ml^−1 for B. amphitrite. Competent larvae (15±2 individuals) were added to each well with 1 ml testing solution in 5 replicates, and wells containing FSW served as the control. The 24-well plates were incubated at 30° C. for 24 h. The percent larval settlement was determined by counting the number of settled individuals under a dissecting microscope and expressed as a proportion of the total number of larvae in the well.

[2] = solubility in organic solvents; type: physicochemical; settings: at 25° C. in methanol, ethanol, propanol, butanol, ethyl acetate acetone, chloroform, dichloromethane and acetonitrile
Rhodovulum sp. = experiment: agar disc diffusion assay, inhibition zone; type: cell-based; settings: 24 h, read-out: Inhibition Zone Width
Description: (§3) Antibacterial activity was tested against bacteria using agar disc diffusion assay. Sterile paper discs (6 mm i.d.) impregnated with the substance under test at a concentration of 50 μg disc^−1 were applied onto the surface of an agar plate (plastic Petri dish) inoculated with one strain with sterile forceps and gently pressed down to ensure good contact with the surface. Blank discs treated with the same volume of DMSO were added. A control disc containing streptomycin was used. After the application of discs, the plates were incubated at 30° C. for 24 h. The size of the inhibition zone was measured. The results are presented in Table 8 and Table 9 for Cyclo (D)-Pro-(D)-Phe and b3-methyl-N-(2-phenylethyl)butanamide, respectively.

Vibrio vulnificus = experiment: agar disc diffusion assay, inhibition zone; type: cell-based; settings: 24 h, read-out: Inhibition Zone Width
Description: as §3

Vibrio halioticoli = experiment: agar disc diffusion assay, inhibition zone; type: cell-based; settings: 24 h, read-out: Inhibition Zone Width
Description: as §3

Loktanella hongkongensis = experiment: agar disc diffusion assay, inhibition zone; type: cell-based; settings: Limimaricola hongkongensis, 24 h, read-out: Inhibition Zone Width
Description: as §3

Vibrio furnissii = experiment: agar disc diffusion assay, inhibition zone; type: cell-based; settings: 24 h, read-out: Inhibition Zone Width
Description: as §3

Vibrio alginolyticus = experiment: agar disc diffusion assay, inhibition zone; type: cell-based; settings: 24 h, read-out: Inhibition Zone Width
Description: as §3

Vibrio harveyi = experiment: agar disc diffusion assay, inhibition zone; type: cell-based; settings: 30° C., 24 h, read-out: Inhibition Zone Width; for zone of inhibition at 50 µg/disc: 50 μg/disc
Description: as §3, with “using an” for “using”, “diffusion assay method.” for “diffusion assay.”, “control disc,” for “control disc”, “24 h, and then the” for “24 h. The”, “measured.” for “measured. The results are presented in Table 8 and Table 9 for Cyclo (D)-Pro-(D)-Phe and b3-methyl-N-(2-phenylethyl)butanamide, respectively.”
as §3

Vibrio fluvialis = experiment: agar disc diffusion assay, inhibition zone; type: cell-based; settings: 30° C., 24 h, read-out: Inhibition Zone Width; for zone of inhibition at 50 µg/disc: 50 μg/disc
Description: as §3, with “using an” for “using”, “diffusion assay method.” for “diffusion assay.”, “control disc,” for “control disc”, “24 h, and then the” for “24 h. The”, “measured.” for “measured. The results are presented in Table 8 and Table 9 for Cyclo (D)-Pro-(D)-Phe and b3-methyl-N-(2-phenylethyl)butanamide, respectively.”
as §3

Shewanella algae = experiment: agar disc diffusion assay, inhibition zone; type: cell-based; settings: 30° C., 24 h, read-out: Inhibition Zone Width; for zone of inhibition at 50 µg/disc: 50 μg/disc
Description: as §3, with “using an” for “using”, “diffusion assay method.” for “diffusion assay.”, “control disc,” for “control disc”, “24 h, and then the” for “24 h. The”, “measured.” for “measured. The results are presented in Table 8 and Table 9 for Cyclo (D)-Pro-(D)-Phe and b3-methyl-N-(2-phenylethyl)butanamide, respectively.”
as §3

Pseudoalteromonas sp. = experiment: agar disc diffusion assay, inhibition zone; type: cell-based; settings: 30° C., 24 h, read-out: Inhibition Zone Width; for zone of inhibition at 50 µg/disc: 50 μg/disc
Description: as §3, with “using an” for “using”, “diffusion assay method.” for “diffusion assay.”, “control disc,” for “control disc”, “24 h, and then the” for “24 h. The”, “measured.” for “measured. The results are presented in Table 8 and Table 9 for Cyclo (D)-Pro-(D)-Phe and b3-methyl-N-(2-phenylethyl)butanamide, respectively.”
as §3

Moraxella phenylpyruvica = experiment: agar disc diffusion assay, inhibition zone; type: cell-based; settings: Psychrobacter phenylpyruvicus, 30° C., 24 h, read-out: Inhibition Zone Width; for zone of inhibition at 50 µg/disc: 50 μg/disc
Description: as §3, with “using an” for “using”, “diffusion assay method.” for “diffusion assay.”, “control disc,” for “control disc”, “24 h, and then the” for “24 h. The”, “measured.” for “measured. The results are presented in Table 8 and Table 9 for Cyclo (D)-Pro-(D)-Phe and b3-methyl-N-(2-phenylethyl)butanamide, respectively.”
as §3

Micrococcus luteus = experiment: agar disc diffusion assay, inhibition zone; type: cell-based; settings: 30° C., 24 h, read-out: Inhibition Zone Width; for zone of inhibition at 50 µg/disc: 50 μg/disc
Description: as §3, with “using an” for “using”, “diffusion assay method.” for “diffusion assay.”, “control disc,” for “control disc”, “24 h, and then the” for “24 h. The”, “measured.” for “measured. The results are presented in Table 8 and Table 9 for Cyclo (D)-Pro-(D)-Phe and b3-methyl-N-(2-phenylethyl)butanamide, respectively.”
as §3

[3] = system: Staphylococcus haemolyticus; experiment: agar disc diffusion assay, inhibition zone; type: cell-based; settings: 30° C., 24 h, read-out: Inhibition Zone Width; for zone of inhibition at 50 µg/disc: 50 μg/disc
Description: as §3, with “using an” for “using”, “diffusion assay method.” for “diffusion assay.”, “control disc,” for “control disc”, “24 h, and then the” for “24 h. The”, “measured.” for “measured. The results are presented in Table 8 and Table 9 for Cyclo (D)-Pro-(D)-Phe and b3-methyl-N-(2-phenylethyl)butanamide, respectively.”
as §3

[4] = system: Pseudoalteromonas piscida; experiment: agar disc diffusion assay, inhibition zone; type: cell-based; settings: 30° C., 24 h, read-out: Inhibition Zone Width; for zone of inhibition at 50 µg/disc: 50 μg/disc
Description: as §3, with “using an” for “using”, “diffusion assay method.” for “diffusion assay.”, “control disc,” for “control disc”, “24 h, and then the” for “24 h. The”, “measured.” for “measured. The results are presented in Table 8 and Table 9 for Cyclo (D)-Pro-(D)-Phe and b3-methyl-N-(2-phenylethyl)butanamide, respectively.”
as §3

Vibrio sp. (NAP-4) = experiment: agar disc diffusion assay, inhibition zone; type: cell-based; settings: 24 h, read-out: Inhibition Zone Width
Description: as §3, with “using an” for “using”, “diffusion assay method.” for “diffusion assay.”, “control disc,” for “control disc”, “24 h, and then the” for “24 h. The”, “measured.” for “measured. The results are presented in Table 8 and Table 9 for Cyclo (D)-Pro-(D)-Phe and b3-methyl-N-(2-phenylethyl)butanamide, respectively.”
as §3

in vivo = settings: Balanus amphitrite (barnacle) larvae, in vivo
Description: as §1
(§4) Toxicity of cyclo (D)-Pro-(D)-Phe was determined using 24-well polystyrene plates. Pure compound was dissolved in DMSO and added to autoclaved FSW to form different concentrations. Competent Balanus amphitrites larvae (10±2 individuals) were added to each well with 1 ml testing solution in 5 replicates. The wells containing FSW served as the control. The 24-well plates were incubated at 30° C. for 24 h. The percent mortality was determined by counting the number of dead larvae under a dissecting microscope.
as §2

[5] = system: Balanus amphitrite larvae; experiment: in vivo
Description: as §1, §4, §2

Staphylococcus aureus = experiment: agar disc diffusion assay, inhibition zone; type: cell-based; settings: 50 μg/disc, 30° C., 24 h, read-out: Inhibition Zone Width
Description: as §3, with “using an” for “using”, “diffusion assay method.” for “diffusion assay.”, “control disc,” for “control disc”, “24 h, and then the” for “24 h. The”, “measured.” for “measured. The results are presented in Table 8 and Table 9 for Cyclo (D)-Pro-(D)-Phe and b3-methyl-N-(2-phenylethyl)butanamide, respectively.”

Ruegeria sp. = experiment: agar disc diffusion assay, inhibition zone; type: cell-based; settings: 50 μg/disc, 30° C., 24 h; read-out: Inhibition Zone Width
Description: as §3, with “using an” for “using”, “diffusion assay method.” for “diffusion assay.”, “control disc,” for “control disc”, “24 h, and then the” for “24 h. The”, “measured.” for “measured. The results are presented in Table 8 and Table 9 for Cyclo (D)-Pro-(D)-Phe and b3-methyl-N-(2-phenylethyl)butanamide, respectively.”

[6] = 100 μg (streptomycin control), 30° C.

SMILES: CC(C)CC(=O)NCCc1ccccc1 [Compound 3, 3-methyl-N-(2-phenylethyl) butanamide]
- EC50 ([1]; Amphibalanus amphitrite, read-out: EC50 (anti-larval settlement)): 36.5 µg/mL (≈ 178 µM)
- solubility [2]: soluble
- zone of inhibition at 50 µg/disc (Rhodovulum sp.): 3 ± 0.5 mm
- zone of inhibition at 50 µg/disc (Vibrio vulnificus): 1.2 ± 0.7 mm
- zone of inhibition at 50 µg/disc (Vibrio halioticoli): 0 mm
- zone of inhibition at 50 µg/disc (Loktanella hongkongensis): 0.5 mm
- zone of inhibition at 50 µg/disc (Vibrio furnissii): 0 mm
- zone of inhibition at 50 µg/disc (Vibrio alginolyticus): 1.7 ± 0.6 mm
- zone of inhibition at 50 µg/disc (Vibrio harveyi): 0 mm
- zone of inhibition at 50 µg/disc (Vibrio fluvialis): 0 mm
- zone of inhibition at 50 µg/disc (Shewanella algae): 1.3 ± 0.6 mm
- zone of inhibition at 50 µg/disc (Pseudoalteromonas sp.): 0 mm
- zone of inhibition at 50 µg/disc (Moraxella phenylpyruvica): 0 mm
- zone of inhibition at 50 µg/disc (Micrococcus luteus): 3.3 ± 0.6 mm
- zone of inhibition at 50 µg/disc [3]: 0.5 mm
- zone of inhibition at 50 µg/disc [4]: 1.5 mm
- zone of inhibition at 50 µg/disc (Vibrio sp. (NAP-4)): 0 mm
- LC50 at 24 h (in vivo): 81.4 µg/mL (≈ 396 µM)
- therapeutic ratio LC50/EC50 ([5]; Balanus amphitrite larvae): 2.23
- toxic symptoms ([5]; at the concentration of 50 μg ml^−1, 24 h): did not induce any toxic symptoms

SMILES: O=C(O)CCC(=O)O [Compound 4, succinic acid]
- concentration showing anti-larval settlement effects ([1]; tested range 60-140 μg ml^−1, 24 h): 110 µg/mL
- therapeutic ratio LC50/EC50 ([5]; in vivo): 94.1

SMILES: [H]/N=C(/N)N[C@H]1[C@H](O)[C@@H](O)[C@H](O[C@@H]2O[C@@H](C)[C@](O)(C=O)[C@H]2O[C@@H]2O[C@@H](CO)[C@H](O)[C@@H](O)[C@@H]2NC)[C@@H](N/C(N)=N\[H])[C@@H]1O [Streptomycin, reference compound]
- zone of inhibition at 50 µg/disc (Staphylococcus aureus): 3.5 mm
- zone of inhibition at 50 µg/disc (Ruegeria sp.): 4.5 mm
- zone of inhibition at 100 µg/disc (Rhodovulum sp.; [6]): 5.3 ± 1.2 mm
- zone of inhibition at 100 µg/disc (Vibrio vulnificus; [6]): 3.3 ± 0.8 mm
- zone of inhibition at 100 µg/disc (Vibrio halioticoli; [6]): 4.3 ± 0.6 mm
- zone of inhibition at 100 µg/disc (Loktanella hongkongensis; [6]): 4 mm
- zone of inhibition at 100 µg/disc (Vibrio furnissii; [6]): 2.3 ± 0.6 mm
- zone of inhibition at 100 µg/disc (Vibrio alginolyticus; [6]): 6.7 ± 2.3 mm
- zone of inhibition at 50 µg/disc (Vibrio harveyi): 3 mm
- zone of inhibition at 100 µg/disc (Vibrio harveyi; 100 μg (streptomycin control)): 6 mm
- zone of inhibition at 50 µg/disc (Vibrio fluvialis): 4 mm
- zone of inhibition at 100 µg/disc (Vibrio fluvialis; 100 μg (streptomycin control)): 3 mm
- zone of inhibition at 50 µg/disc (Shewanella algae): 7 mm
- zone of inhibition at 100 µg/disc (Shewanella algae; 100 μg (streptomycin control)): 6.3 ± 1.2 mm
- zone of inhibition at 50 µg/disc (Pseudoalteromonas sp.): 6 mm
- zone of inhibition at 100 µg/disc (Pseudoalteromonas sp.; 100 μg (streptomycin control)): 4 ± 1 mm
- zone of inhibition at 50 µg/disc (Moraxella phenylpyruvica): 0 mm
- zone of inhibition at 100 µg/disc (Moraxella phenylpyruvica; 100 μg (streptomycin control)): 9 mm
- zone of inhibition at 50 µg/disc (Micrococcus luteus): 6.5 mm
- zone of inhibition at 100 µg/disc (Micrococcus luteus; 100 μg (streptomycin control)): 6.7 ± 0.6 mm
- zone of inhibition at 50 µg/disc [3]: 6 mm
- zone of inhibition at 100 µg/disc ([3]; 100 μg (streptomycin control)): 3 mm
- zone of inhibition at 50 µg/disc [4]: 5 mm
- zone of inhibition at 100 µg/disc ([4]; 100 μg (streptomycin control)): 3 ± 1 mm
- zone of inhibition at 50 µg/disc (Vibrio sp. (NAP-4); 50 μg/disc, 30° C.): 4 mm
- zone of inhibition at 100 µg/disc (Vibrio sp. (NAP-4); [6]): 5.7 ± 0.6 mm
